Results taken from patent US6369042B1, “Antioxidative vitamin B6 analogs” (priority 1999, dated 2002).

Tested on: Rhinovirus infection
Assay: Treatment of a rhinovirus infection (common cold) in a patient
Assay type: in vivo, human
Details: 50 mg orally in a water solution, after 15 minutes
Experimental: A patient with a common katarrhalic infection (common cold) was treated orally with 50 mg of (2RS,4R)-2-[3-Hydroxy-5-(hydroxymethyl)-2-methyl-4-pyridinyl]-4-thiazolidine carboxylic acid in a water solution. After 15 minutes the disease symptoms disappeared.

Cc1ncc(CO)c(C2N[C@H](C(=O)O)CS2)c1O (mixture of isomers) [(2RS,4R)-2-[3-Hydroxy-5-(hydroxymethyl)-2-methyl-4-pyridinyl]-4-thiazolidine carboxylic acid]
disease symptoms of common katarrhalic infection (common cold): disappeared
